Data on twelve compounds can be found in PubChem BioAssay (NCI).

Among the test systems are SK-MEL-2 melanoma; CCRF-CEM leukemia; MDA-MB-231 breast; SW-620 colon; MOLT-4 leukemia; UACC-62 melanoma; OVCAR-3 ovarian; SNB-19 CNS; SF-295 CNS; LOX IMVI melanoma; BT-549 breast; HT29 colon.
Holding throughout (assay): NCI-60 cell line screen, 48 h

The structures appear in SMILES notation.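 Assay format: 96-well plates, 48-hour exposure. TGI: concentration producing complete growth inhibition.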

On to `N#CS/C(C(Cl)=C(Cl)Cl)=C(/Cl)[N+](=O)[O-]`, for which the TGI in the assay with SK-MEL-2 melanoma stood at 17.1 µM; with CCRF-CEM leukemia, 1.18 µM; with MDA-MB-231 breast, 11.9 µM; in the assay on SW-620 colon, 3.5 µM; with MOLT-4 leukemia, 2.19 µM; in the assay with UACC-62 melanoma it was 17.5 µM. The TGI worked out at 3.1 µM with OVCAR-3 ovarian; 49.4 µM in the assay on SNB-19 CNS; 45.4 µM in the assay on SF-295 CNS; 2.37 µM with LOX IMVI melanoma; 4.92 µM in the assay with BT-549 breast.

Turning to `COc1cc2c(cc1C)NC(=O)/C2=C/c1c(Cl)[nH]c2cc(C)c(OC)cc12`, the TGI in the assay on SK-MEL-2 melanoma is 22.1 µM; in the assay with CCRF-CEM leukemia it was 5.16 µM; in the assay on MDA-MB-231 breast, 33.2 µM; in the assay with SW-620 colon it was 19.7 µM; in the assay with MOLT-4 leukemia it was 17.8 µM; with UACC-62 melanoma it was 19.5 µM. Also, the TGI came out at 8.6 µM in the assay on OVCAR-3 ovarian; 20.4 µM in the assay on SNB-19 CNS; 17.6 µM in the assay with HT29 colon; 6.18 µM with SF-295 CNS; 15.7 µM with LOX IMVI melanoma; 9.92 µM in the assay with BT-549 breast.

With `C=CCN1CCC(OC(=O)C(O)(/C=C\CC)C2CCCC2)CC1` (centres undefined), the TGI with SK-MEL-2 melanoma, in the assay with CCRF-CEM leukemia, in the assay with MDA-MB-231 breast, with MOLT-4 leukemia, in the assay with UACC-62 melanoma and with OVCAR-3 ovarian was over 100 µM throughout. In addition, the TGI in the assay on SNB-19 CNS, in the assay on HT29 colon, in the assay with SF-295 CNS, with LOX IMVI melanoma and in the assay with BT-549 breast was over 100 µM in each case.

`NC(CCCCCP(=O)(O)O)C(=O)O` (centres undefined): the TGI with SK-MEL-2 melanoma, in the assay with CCRF-CEM leukemia, with MDA-MB-231 breast, in the assay on SW-620 colon, with MOLT-4 leukemia and with UACC-62 melanoma was over 100 µM throughout. Further, the TGI in the assay on OVCAR-3 ovarian, in the assay with SNB-19 CNS, in the assay on HT29 colon, in the assay with SF-295 CNS, in the assay on LOX IMVI melanoma and in the assay with BT-549 breast was over 100 µM each time.

Take `COc1ccc(C2CCc3nc4nc(N)nc(N)c4cc3C2)cc1` (centres undefined): the TGI in the assay with SK-MEL-2 melanoma is 42.3 µM; with MDA-MB-231 breast it was 42 µM; in the assay with SW-620 colon, over 100 µM; with MOLT-4 leukemia, 65.3 µM; in the assay with UACC-62 melanoma, over 100 µM; with OVCAR-3 ovarian, 43.9 µM. The TGI was 31.8 µM in the assay with SNB-19 CNS; 94.3 µM with HT29 colon; 89.6 µM with SF-295 CNS; 30 µM in the assay on LOX IMVI melanoma; 70.6 µM in the assay on BT-549 breast.

As to `NS(=O)(=O)c1nnc(NC(=O)CCC(=O)O)s1`, the TGI in the assay with SK-MEL-2 melanoma, in the assay on MDA-MB-231 breast, in the assay on SW-620 colon, in the assay on MOLT-4 leukemia, in the assay on UACC-62 melanoma and in the assay with OVCAR-3 ovarian was over 100 µM throughout. Further, the TGI with SNB-19 CNS, in the assay with HT29 colon, in the assay on SF-295 CNS, with LOX IMVI melanoma and in the assay with BT-549 breast was over 100 µM in each case.

Consider `N#CC12COC3(CCCCC3C1(C#N)C#N)OC2=N` (centres undefined), for which the TGI was 25.3 µM in the assay with SK-MEL-2 melanoma; 22.3 µM in the assay with CCRF-CEM leukemia; 33.3 µM in the assay with MDA-MB-231 breast; over 100 µM in the assay on SW-620 colon; 79.7 µM in the assay with MOLT-4 leukemia; 33.9 µM in the assay on UACC-62 melanoma. In addition, the TGI with OVCAR-3 ovarian came out at 23.1 µM; in the assay with SNB-19 CNS it was 36 µM; in the assay on HT29 colon it was 26.1 µM; with SF-295 CNS it was 43.1 µM; with LOX IMVI melanoma, 30.3 µM; with BT-549 breast, 30.5 µM.

As for `CC(=O)OCC1C(C(C)OC(C)=O)CCC2C1CCC1(C)C(OC(C)=O)CCC21` (centres undefined), the TGI with CCRF-CEM leukemia was 42.6 µM; with MDA-MB-231 breast it was 30.7 µM; in the assay on SW-620 colon, 38.2 µM; in the assay on MOLT-4 leukemia, 41.8 µM; with UACC-62 melanoma it was 26.3 µM; in the assay on OVCAR-3 ovarian, 41.9 µM. The TGI was determined as 42.5 µM in the assay with SNB-19 CNS; 32.8 µM in the assay with HT29 colon; 41.4 µM in the assay with SF-295 CNS; 27.9 µM in the assay with LOX IMVI melanoma; 24.5 µM in the assay with BT-549 breast.

For the compound `O=C(ON=c1c2ccccc2ccc2ccccc12)c1cc([N+](=O)[O-])cc([N+](=O)[O-])c1`, the TGI in the assay on SK-MEL-2 melanoma is over 100 µM; in the assay with CCRF-CEM leukemia it was 94 µM; in the assay with MDA-MB-231 breast, over 100 µM; in the assay with SW-620 colon it was over 100 µM; in the assay with MOLT-4 leukemia it was over 100 µM; in the assay on UACC-62 melanoma, over 100 µM. The TGI with OVCAR-3 ovarian, with SNB-19 CNS, with HT29 colon, with SF-295 CNS, with LOX IMVI melanoma and with BT-549 breast was over 100 µM in each case.

Regarding `CN1CN(c2ccccc2)C2(CCNCC2)C1=O`, the TGI in the assay on SK-MEL-2 melanoma, in the assay on CCRF-CEM leukemia, with MDA-MB-231 breast, in the assay with SW-620 colon, in the assay on MOLT-4 leukemia and with UACC-62 melanoma was over 100 µM in each case. Moreover, the TGI in the assay with OVCAR-3 ovarian, in the assay on SNB-19 CNS, with HT29 colon, in the assay with SF-295 CNS, in the assay on LOX IMVI melanoma and with BT-549 breast was over 100 µM in each case.

Turning to `CCCCc1ccc(Nc2nc3c(ncn3C3OC(COC(C)=O)C(OC(C)=O)C3OC(C)=O)c(=O)[nH]2)cc1` (centres undefined), the TGI with SK-MEL-2 melanoma was 31 µM; in the assay with CCRF-CEM leukemia, 35.1 µM; in the assay on MDA-MB-231 breast, 31.1 µM; with SW-620 colon, 48.2 µM; with MOLT-4 leukemia, 37.8 µM; with UACC-62 melanoma it was 34.7 µM. The TGI in the assay with OVCAR-3 ovarian was found to be 31.6 µM; with SNB-19 CNS it was 81.5 µM; in the assay with HT29 colon, 37.5 µM; in the assay with SF-295 CNS, 53.1 µM; in the assay on LOX IMVI melanoma, 36 µM; in the assay on BT-549 breast it was 32.2 µM.

Consider `O=C1CCc2c3c(c4c([nH]c5ccccc54)c2CC1)C(=O)NC3=O`, for which the TGI in the assay on SK-MEL-2 melanoma was 17.1 µM; in the assay with CCRF-CEM leukemia, over 100 µM; in the assay on MDA-MB-231 breast it was over 100 µM; in the assay on SW-620 colon, over 100 µM; with MOLT-4 leukemia it was 4.05 µM; with UACC-62 melanoma, 42.8 µM. In addition, the TGI in the assay on OVCAR-3 ovarian is over 100 µM; in the assay on SNB-19 CNS, 44.4 µM; in the assay on HT29 colon it was 12.1 µM; with SF-295 CNS it was 33.5 µM; in the assay with LOX IMVI melanoma, 21 µM; in the assay on BT-549 breast it was 28.2 µM.
